Results on 1 compound are retold here after ChEMBL document CHEMBL5055685, “Discovery of the First Potent IDO1/IDO2 Dual Inhibitors: A Promising Strategy for Cancer Immunotherapy” (J Med Chem, 2021).

Activity calls are given as the source filed them. The rule behind the calls is not given here.

The test system of one assay is HCT-116. Briefly: Antitumor immunity in BALB/c mouse xenografted with human HCT-116 cells assessed as necrotic Treg cells in tumor-draining lymph nodes by propidium iodide staining based flow cytometry analysis (reference value: 3.91 %). Format: functional.
Assay [1] deals with Activin receptor type-1 (Homo sapiens) (UniProt Q04771). Briefly: Inhibition of ALK2 (unknown origin) at 1 uM.
The target of assay [2] is Inhibitor of nuclear factor kappa-B kinase subunit beta (Homo sapiens) (UniProt O14920). Put plainly: Inhibition of IKKbeta (unknown origin) at 1 uM.
Assay [3] concerns the target Serine/threonine-protein kinase STK11 (Homo sapiens) (UniProt Q15831). Briefly: Inhibition of LKB1 (unknown origin) at 1 uM.
In assay [4] the target is Leucine-rich repeat serine/threonine-protein kinase 2 (Homo sapiens) (UniProt Q5S007). Put plainly: Inhibition of LRRK2 (unknown origin) at 1 uM.
In assay [5] the target is Mitogen-activated protein kinase kinase kinase 6 (Homo sapiens) (UniProt O95382). Put plainly: Inhibition of MEKK6 (unknown origin) at 1 uM.
For assay [6], the target named is Serine/threonine-protein kinase D3 (Homo sapiens) (UniProt O94806). Put plainly: Inhibition of PKCnu (unknown origin) at 1 uM.
Assay [7] deals with cGMP-dependent protein kinase 1 (Homo sapiens) (UniProt Q13976). Briefly: Inhibition of PKG1beta (unknown origin) at 1 uM.

Sequence of Activin receptor type-1 (Homo sapiens) (Q04771 whole entry): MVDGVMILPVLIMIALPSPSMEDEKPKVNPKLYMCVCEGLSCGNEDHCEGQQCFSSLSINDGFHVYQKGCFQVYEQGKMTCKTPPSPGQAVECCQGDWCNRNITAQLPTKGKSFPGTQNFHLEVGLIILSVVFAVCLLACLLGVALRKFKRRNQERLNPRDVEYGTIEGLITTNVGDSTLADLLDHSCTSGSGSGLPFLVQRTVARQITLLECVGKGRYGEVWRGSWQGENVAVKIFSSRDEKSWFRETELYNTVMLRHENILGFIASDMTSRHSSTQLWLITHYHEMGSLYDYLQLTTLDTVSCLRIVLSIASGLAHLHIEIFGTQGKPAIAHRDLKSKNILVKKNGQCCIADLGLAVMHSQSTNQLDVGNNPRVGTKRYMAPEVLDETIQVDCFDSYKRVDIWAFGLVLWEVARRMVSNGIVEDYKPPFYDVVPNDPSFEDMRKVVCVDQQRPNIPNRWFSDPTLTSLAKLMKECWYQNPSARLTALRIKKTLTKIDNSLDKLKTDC
Sequence of Inhibitor of nuclear factor kappa-B kinase subunit beta (Homo sapiens) (O14920 whole entry): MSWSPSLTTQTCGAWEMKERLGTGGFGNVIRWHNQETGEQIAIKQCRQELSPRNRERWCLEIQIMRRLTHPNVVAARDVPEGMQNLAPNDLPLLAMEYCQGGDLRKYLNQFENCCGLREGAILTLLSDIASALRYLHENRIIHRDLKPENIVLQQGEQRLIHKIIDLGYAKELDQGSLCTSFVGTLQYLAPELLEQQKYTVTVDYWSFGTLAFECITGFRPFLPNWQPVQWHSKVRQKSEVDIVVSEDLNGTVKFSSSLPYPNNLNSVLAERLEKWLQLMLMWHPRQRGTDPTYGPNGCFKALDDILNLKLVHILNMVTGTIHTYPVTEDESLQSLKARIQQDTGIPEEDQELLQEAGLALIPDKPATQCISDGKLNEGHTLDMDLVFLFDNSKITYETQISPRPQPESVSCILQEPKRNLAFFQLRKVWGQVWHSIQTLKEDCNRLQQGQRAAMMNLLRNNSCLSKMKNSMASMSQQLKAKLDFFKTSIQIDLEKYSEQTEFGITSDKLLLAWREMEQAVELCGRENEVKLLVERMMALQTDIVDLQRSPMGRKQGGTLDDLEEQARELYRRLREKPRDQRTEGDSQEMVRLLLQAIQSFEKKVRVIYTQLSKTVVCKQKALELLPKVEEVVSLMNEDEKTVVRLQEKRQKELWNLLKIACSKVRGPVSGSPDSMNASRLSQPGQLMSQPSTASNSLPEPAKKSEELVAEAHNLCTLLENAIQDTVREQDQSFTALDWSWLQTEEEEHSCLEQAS
Sequence of Serine/threonine-protein kinase D3 (Homo sapiens) (O94806 whole entry): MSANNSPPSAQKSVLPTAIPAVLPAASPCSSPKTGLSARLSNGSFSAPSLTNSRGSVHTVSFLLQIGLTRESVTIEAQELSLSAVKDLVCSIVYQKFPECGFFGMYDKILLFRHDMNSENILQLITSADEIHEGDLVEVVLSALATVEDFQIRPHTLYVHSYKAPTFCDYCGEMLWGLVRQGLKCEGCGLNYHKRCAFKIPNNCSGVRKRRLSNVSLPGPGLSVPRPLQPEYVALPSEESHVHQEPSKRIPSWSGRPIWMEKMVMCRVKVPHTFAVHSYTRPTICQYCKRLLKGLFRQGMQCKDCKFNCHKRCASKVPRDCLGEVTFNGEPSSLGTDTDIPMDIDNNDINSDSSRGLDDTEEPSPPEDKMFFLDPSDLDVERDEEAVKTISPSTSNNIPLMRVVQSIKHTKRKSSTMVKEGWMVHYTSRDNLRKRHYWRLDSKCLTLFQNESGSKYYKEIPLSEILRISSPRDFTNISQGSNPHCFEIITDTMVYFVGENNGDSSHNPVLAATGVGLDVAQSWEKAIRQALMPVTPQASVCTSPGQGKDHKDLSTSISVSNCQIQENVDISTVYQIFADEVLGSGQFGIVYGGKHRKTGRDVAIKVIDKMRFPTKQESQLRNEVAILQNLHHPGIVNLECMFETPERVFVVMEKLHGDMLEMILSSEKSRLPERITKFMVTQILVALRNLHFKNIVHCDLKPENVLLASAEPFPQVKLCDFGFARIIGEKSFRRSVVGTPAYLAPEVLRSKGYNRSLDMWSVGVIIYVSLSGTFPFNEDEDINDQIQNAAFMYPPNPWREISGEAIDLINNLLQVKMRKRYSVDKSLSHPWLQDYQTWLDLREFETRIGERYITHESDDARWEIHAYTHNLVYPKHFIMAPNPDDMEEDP
Sequence of Serine/threonine-protein kinase STK11 (Homo sapiens) (Q15831 whole entry): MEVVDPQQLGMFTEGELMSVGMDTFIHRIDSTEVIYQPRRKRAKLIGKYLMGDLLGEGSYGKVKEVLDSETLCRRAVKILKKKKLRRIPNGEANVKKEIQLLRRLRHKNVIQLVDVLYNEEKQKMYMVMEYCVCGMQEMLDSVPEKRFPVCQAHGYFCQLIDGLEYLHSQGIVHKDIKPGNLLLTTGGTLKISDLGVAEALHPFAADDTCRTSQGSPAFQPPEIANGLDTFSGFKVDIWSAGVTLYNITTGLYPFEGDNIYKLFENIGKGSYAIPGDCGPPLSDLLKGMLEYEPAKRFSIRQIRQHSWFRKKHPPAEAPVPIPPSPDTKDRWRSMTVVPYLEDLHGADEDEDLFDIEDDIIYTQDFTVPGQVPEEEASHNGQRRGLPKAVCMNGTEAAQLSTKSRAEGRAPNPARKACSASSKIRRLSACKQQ
Sequence of Leucine-rich repeat serine/threonine-protein kinase 2 (Homo sapiens) (Q5S007 whole entry): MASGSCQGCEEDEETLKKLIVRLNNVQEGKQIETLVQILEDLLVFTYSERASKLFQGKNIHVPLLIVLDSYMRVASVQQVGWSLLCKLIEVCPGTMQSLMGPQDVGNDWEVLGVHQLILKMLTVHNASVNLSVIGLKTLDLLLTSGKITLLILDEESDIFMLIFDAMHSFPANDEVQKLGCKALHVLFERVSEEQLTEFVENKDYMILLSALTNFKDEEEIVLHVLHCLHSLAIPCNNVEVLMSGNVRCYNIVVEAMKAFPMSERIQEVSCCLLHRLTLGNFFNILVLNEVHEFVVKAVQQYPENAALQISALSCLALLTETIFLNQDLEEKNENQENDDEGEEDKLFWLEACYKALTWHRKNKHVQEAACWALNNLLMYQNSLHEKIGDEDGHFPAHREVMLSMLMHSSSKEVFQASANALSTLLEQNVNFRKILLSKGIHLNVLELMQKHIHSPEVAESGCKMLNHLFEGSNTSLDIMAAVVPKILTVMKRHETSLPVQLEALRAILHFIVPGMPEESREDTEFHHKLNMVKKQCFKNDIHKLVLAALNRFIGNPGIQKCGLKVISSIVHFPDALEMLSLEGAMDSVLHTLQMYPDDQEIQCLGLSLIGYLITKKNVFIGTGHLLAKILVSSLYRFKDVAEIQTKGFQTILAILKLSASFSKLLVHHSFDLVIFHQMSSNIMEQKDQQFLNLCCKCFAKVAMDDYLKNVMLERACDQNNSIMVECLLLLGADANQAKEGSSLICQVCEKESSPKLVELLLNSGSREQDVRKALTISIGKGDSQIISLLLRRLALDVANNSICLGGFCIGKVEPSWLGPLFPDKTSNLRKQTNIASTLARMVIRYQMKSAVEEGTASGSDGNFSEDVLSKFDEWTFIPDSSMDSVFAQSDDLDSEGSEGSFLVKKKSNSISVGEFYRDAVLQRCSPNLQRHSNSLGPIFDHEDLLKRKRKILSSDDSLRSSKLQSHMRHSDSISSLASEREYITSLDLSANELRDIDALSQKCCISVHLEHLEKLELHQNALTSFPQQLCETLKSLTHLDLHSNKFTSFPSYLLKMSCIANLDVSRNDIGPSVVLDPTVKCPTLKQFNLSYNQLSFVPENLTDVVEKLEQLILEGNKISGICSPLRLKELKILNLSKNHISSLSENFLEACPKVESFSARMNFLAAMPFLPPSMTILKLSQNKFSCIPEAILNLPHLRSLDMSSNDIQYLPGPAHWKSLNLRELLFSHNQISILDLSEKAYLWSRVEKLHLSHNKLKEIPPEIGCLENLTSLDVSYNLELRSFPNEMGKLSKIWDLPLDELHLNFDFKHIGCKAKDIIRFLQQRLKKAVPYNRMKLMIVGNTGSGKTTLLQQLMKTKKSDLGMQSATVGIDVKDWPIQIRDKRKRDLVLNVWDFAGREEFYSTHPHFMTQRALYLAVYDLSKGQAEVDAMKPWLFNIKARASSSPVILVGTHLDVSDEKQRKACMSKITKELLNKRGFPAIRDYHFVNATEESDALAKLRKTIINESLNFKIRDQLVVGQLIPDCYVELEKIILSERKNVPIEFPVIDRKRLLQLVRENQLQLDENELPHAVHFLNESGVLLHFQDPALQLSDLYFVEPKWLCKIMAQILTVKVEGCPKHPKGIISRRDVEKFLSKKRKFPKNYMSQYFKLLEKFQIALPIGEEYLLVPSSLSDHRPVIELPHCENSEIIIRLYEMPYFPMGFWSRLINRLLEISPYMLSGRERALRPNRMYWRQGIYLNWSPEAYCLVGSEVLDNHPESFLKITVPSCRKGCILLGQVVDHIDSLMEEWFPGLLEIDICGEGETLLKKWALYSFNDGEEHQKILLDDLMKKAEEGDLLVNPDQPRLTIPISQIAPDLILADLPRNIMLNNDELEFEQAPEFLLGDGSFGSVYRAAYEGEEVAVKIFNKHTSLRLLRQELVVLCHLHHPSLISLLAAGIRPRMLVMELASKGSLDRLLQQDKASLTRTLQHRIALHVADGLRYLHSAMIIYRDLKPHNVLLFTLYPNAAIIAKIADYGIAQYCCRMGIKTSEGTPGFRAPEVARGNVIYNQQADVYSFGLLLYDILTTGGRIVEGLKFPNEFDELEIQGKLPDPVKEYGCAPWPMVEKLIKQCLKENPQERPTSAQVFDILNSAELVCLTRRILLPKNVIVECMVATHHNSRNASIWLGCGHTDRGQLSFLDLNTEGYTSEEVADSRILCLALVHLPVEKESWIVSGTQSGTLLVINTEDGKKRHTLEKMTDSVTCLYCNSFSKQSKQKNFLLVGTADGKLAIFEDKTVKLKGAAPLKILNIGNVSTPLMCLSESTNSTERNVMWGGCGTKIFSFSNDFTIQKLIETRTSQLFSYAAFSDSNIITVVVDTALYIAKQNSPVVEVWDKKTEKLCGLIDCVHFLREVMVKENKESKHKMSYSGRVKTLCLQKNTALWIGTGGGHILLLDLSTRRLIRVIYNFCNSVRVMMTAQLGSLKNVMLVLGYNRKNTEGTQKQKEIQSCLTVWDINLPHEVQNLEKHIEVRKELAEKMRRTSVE

Turning to `OCCOCc1cn(CCNc2nonc2/C(=N/O)Nc2ccc(F)c(Br)c2)nn1`, the Activity in the assay with HCT-116 is reported as 0.73%. Further, the inhibition result in assay [1], in assay [2], in assay [3], in assay [4], in assay [5] and in assay [6] was “inactive” each time. Further, in assay [7], the inhibition entry was “inactive”.
